Values quoted from earlier work as cited in patent publication EP2361081B1, “MULTI PORTION INTRA-ORAL DOSAGE FORM AND USE THEREOF” (McNeil AB, priority 2008, dated 2010).
Where two headings read alike, the source gives them in different places. Peptide text beside a SMILES is read from it.

Assays:
[1] = pKa value lying in interval 8 - 9,6; taken from Handbook of Chemistry and Physics, 85th edition
[2] = stated in the context of absorption from the oral cavity
[3] = in water; footnote b) = low or uncertain value, taken from Handbook of Chemistry and Physics, 85th edition

| SMILES | pKa value (in interval 8 - 9,6) [1] | Solubility in water, g/kg [3] | further results |
| --- | --- | --- | --- |
| CSCC[C@H](N)C(=O)O [Methionine] | 9,08 | – | Solubility in water [3]: 56 g/kg |
| NCCCC[C@H](N)C(=O)O [Lysine] | 9,16 | – | Solubility in water, g/kg: Very soluble ^a)b) |
| CC[C@H](C)[C@H](N)C(=O)O [Isoleucine] | 9,60 | 34,2 g/kg | – |
| NC(=O)C[C@H](N)C(=O)O [Aspargine] | 8,73 | – | – |
| CN1CCCC1c1cccnc1 (stereo not drawn) [nicotine, 3-(1-methyl-2-pyrrolidinyl)-pyridine] | – | – | pKa of nicotine [2]: about 7.8 |
| N[C@@H](CCC(=O)O)C(=O)O [Glutamic acid] | 9,58 | – | – |
| N[C@@H](Cc1c[nH]cn1)C(=O)O [Histidine] | 9,09 | 43,5 g/kg | – |
| NC(=O)CC[C@H](N)C(=O)O [Glutamine] | 9,00 | – | Solubility in water [3]: 42 g/kg |
| NCC(=O)O [Glycine] | 9,58 | – | – |
| N[C@@H](CS(=O)(=O)O)C(=O)O [Cysteic acid] | 8,70 | Very soluble | – |

More lines, main results first:

| pKa value (in interval 8 - 9,6) [1] | Solubility in water, g/kg [3] | SMILES | further results |
| --- | --- | --- | --- |
| 8,10 | – | NCC(=O)NCC(=O)O [N-Glycylglycine] (H-Gly-Gly-OH) | – |
| 9,52 | 88,5 g/kg | CC(C)[C@H](N)C(=O)O [Valine] | – |
| 9,05 | – | N[C@@H](CO)C(=O)O [Serine] | – |
| 8,96 | – | C[C@@H](O)[C@H](N)C(=O)O [Threonine] | – |
| 9,09 | 27,9 g/kg | N[C@@H](Cc1ccccc1)C(=O)O [Phenylalanine] | – |
| – | 22,0 g/kg | CC(C)C[C@H](N)C(=O)O [Leucine] | – |
